Reference: article PMC9785606, “Design and Synthesis of Novel Phenylahistin Derivatives Based on Co-Crystal Structures as Potent Microtubule Inhibitors for Anti-Cancer Therapy” (Marine Drugs, 2022)

Key:
[1] = Stability of liver microsomal metabolism; assay type: in vitro ADME, rat; settings: 37 °C
Procedure: The total volume of the incubation system is 1 mL, which contains 1 mmol/L NADPH, 0.5 mg/mL rat liver microsomes, 1 μmol/L 15p standard solution, which was supplemented with K2HPO4 buffer to 1 mL. The solution should be added to the incubation system. The incubation system was rapidly incubated in a water bath shaker at 37 °C for 5 min before adding 200 μL of 5 mmol/L NADPH. The 50 μL of the incubation system was quickly removed at 0, 5, 10, 20, 40, 60, 90, 120, 150, 210, and 270 min. The concentrations of the samples to be measured (15p) in rat liver microsomes were measured by HPLC-MS/MS. Each sample was operated on three times in parallel. The experimental data were processed and plotted using the computer programs Microsoft Excel (97–2003) and Origin 7.5 software.

caspase-3 = assay: Western blotting of caspase-3 expression; assay type: cell-based
Procedure: Western blot was performed as previously described with antibody caspase-3 (1:1000) (WB0177/WB0176) or GAPDH (1:3000) (WB0197/WB0196, Shanghai Wei-Ao Biotechnology Co., Shanghai, China). Densities of the Western blotting bands were quantified using ImageJ 19.0. (NIH, Bethesda, MD, USA).

In the case of `C=CCn1cnc(/C=c2\[nH]c(=O)/c(=C/c3cccc(C(=O)c4ccc(F)cc4)c3)[nH]c2=O)c1C(C)C` [15p], the “Clearance by liver microsomes” value ([1]; NADPH) is reported as “quickly cleared by liver microsomes”, the Total clearance (CL) at 1 μmol/L ([1]; Wistar, rat, rat liver microsomes, rat liver microsomes 0.5 mg/mL, 1 μmol/L) is reported as 80.6 mL/min/kg and the CLint scaled at 1 μmol/L ([1]; Wistar, rat, rat liver microsomes, rat liver microsomes 0.5 mg/mL, 1 μmol/L, read-out: CLint (intrinsic clearance)) is reported as 772 mL/min/kg. The half-life at 1 μmol/L ([1]; Wistar, rat liver microsomes 0.5 mg/mL, 1 μmol/L) was 7.07 min, the “Expression of caspase-3 vs control group and plinabulin group” value (caspase-3) was “significantly higher” and the “Upregulation of caspase-3” value (caspase-3; 10 nM) was “strongest upregulation of caspase-3”.
